Like-named read-outs stand apart in the source and are kept apart here.
Experiments:
[1] = Growth and viability of lymphoblastoid cell cultures of the Namalva strain; assay type: cell-based; conditions: human, namalva lymphoblastoid cells, control = 100%; for activity: read-out: Cell Culture Growth %; for viability: read-out: Cell Culture Viability %
[2] = test system: mice; assay: Injection into the tail vein of mice (deaths, growth); assay type: in vivo; conditions: 500 μl in NaCl 9%, 10 mice of 20-25g, observed for 35 days
[3] = Fluorocarbon (F-decalin) emulsions: average particle size and stability; assay type: physicochemical; conditions: for increase in average particle size: perfluorodecalin (50% w/v) emulsions, 2 or 3% w/v sole surfactant
Description: ^a Emulsions prepared by microfluidization.
Additional stable perfluorodecalin (50% w/v) emulsions based on the perfluoroalkylated phosphatidylcholines 11 or 12 (2 or 3% w/v) as the sole surfactant have been prepared by sonication.
^a Emulsions prepared by sonication
^b The emulsions are stored at 25° C.
^c The emulsions are stored at 50° C.
^a All the emulsions are prepared by microfluidization and stored at
The new perfluoroalkylated surfactants were solubilized or dispersed into water. Then the fluorocarbon was added under agitation. Any emulsification method like sonication can be used but mechanical procedures such as microfluidization or high pressure homogenization are preferred. The emulsion obtained can be used as an O2 carrier. The significant stabilization effect which can be obtained by incorporating the new F-alkyl surfactants is illustrated for various emulsion formulations (see Tables above).

[4] = Liposome preparation: average size and stability; assay type: physicochemical
Description: 1) Lipid 12 dissolved in chloroform was placed in a round bottom flask and the solvent evaporated by rotation under argon to produce a uniform film of dry lipid. Residual traces of chloroform were removed under vacuum (10^-3 mm Hg, 3 h). Dried lipid is suspended in HEPES buffer (10^-2 M,pH 7), vortexed for 5 ran., then probe sonicated (dial 7 on a Branson B30 sonifier, Power 4, Pulse 50, 3 mn.) 15° C. above phase transition temperature, to produce a clear bluish dispersion. Final concentration of 12 is 3% (w/v). Average size measurements were realised by light scattering on a Coulter Model N4SD, sub-Micron Particle Analyser: 0,12 μm.
2) Same dispersion procedure applied to powder lipid 12 produced a clear dispersion with an average particle size 0,12 μm.
Liposomes were observed by electronic microscopy after freeze-etching as unilamellar and multilamellar vesicles.

[5] = Surface tension of aqueous solutions at 20° C.; assay type: physicochemical; conditions: (+0.3)
Description: (§1) The strong surface activity of the compounds encompassed by this invention is illustrated in particular by the strong lowering of the surface tension (γs) they cause when added to water, as shown by the examples of surface tensions (measured at 20° C. and expressed in milliNewton.meter^-1) and calculated spreading coefficients collected in the Table below: […]

[6] = Interfacial tension and spreading coefficient between water and perfluorodecalin; assay type: physicochemical; conditions: for γi (interfacial tension between water and perfluorodecalin): (+0.3), 56 mNm^-1 in the absence of surfactant; for Spreading Coef.: -56 mNm^-1 in the absence of surfactant
Description: as §1

[7] = Table III, 1% compound + 2% EYP (Ref.: 3% EYP), 20% w/v F-decalin, 1 month at 25° C.
[8] = Table III, 1% compound + 2% EYP (Ref.: 3% EYP), 20% w/v F-decalin, sonication
[9] = Table III, 1% compound + 2% EYP (Ref.: 3% EYP), 20% w/v F-decalin, sonication, stored at 25° C.
[10] = Table I, 3% compound (Ref.: 3% EYP), 50% w/v F-decalin, 1 month at 50° C.
[11] = Table I, 3% compound (Ref.: 3% EYP), 50% w/v F-decalin, microfluidization
[12] = Table IV, 0.66% compound + 1.33% EYP, 100% w/v F-decalin, stored at 50° C.

Structure (SMILES): C[N+](C)(C)CCOP(=O)([O-])OCC(COC(=O)CCCCCCCCCCC(F)(F)C(F)(F)C(F)(F)C(F)(F)C(F)(F)C(F)(F)F)OC(=O)CCCCCCCCCCC(F)(F)C(F)(F)C(F)(F)C(F)(F)C(F)(F)C(F)(F)F (racemic) [Compound 10, 1,2-di[(11-F-hexyl)undecaoyl] 3-[2'-(N,N,N-trimethylamino)ethyl] phosphoryl rac-glycerol]
- activity ([1]; 1 g/l in 9% of NaCl): 99%
- viability ([1]; 1 g/l in 9% of NaCl): 95%
- concentration of which injection caused no deaths and did not perturb the normal growth [2]: 30 g/L

Structure (SMILES): C[N+](C)(C)CCOP(=O)([O-])OCC(COC(=O)CCCCCCCCCCC(F)(F)C(F)(F)C(F)(F)C(F)(F)F)OC(=O)CCCCCCCCCCC(F)(F)C(F)(F)C(F)(F)C(F)(F)F (racemic) [Compound 11, 1,2-di [(11-F-butyl)undecaoyl] 3-[2'-(N,N,N-trimethylamino)ethylphosphoryl] rac-glycerol]
- activity ([1]; 1 g/l in 9% of NaCl): 60%
- viability ([1]; 1 g/l in 9% of NaCl): 83%
- concentration of which injection caused no deaths and did not perturb the normal growth [2]: 100 g/L
- Relative Increase % (particle size) ([3]; Table III, 0.66% compound + 1.33% EYP (Ref.: 2% EYP), 50% w/v F-decalin, 1 month at 50° C.): 35%
- Average Particle Size After Preparation ([3]; Table III, 0.66% compound + 1.33% EYP (Ref.: 2% EYP), 50% w/v F-decalin, sonication): 0.37 μm
- Average Particle Size After 1 month ([3]; Table III, 0.66% compound + 1.33% EYP (Ref.: 2% EYP), 50% w/v F-decalin, sonication, stored at 50° C.): 0.50 μm
- increase in average particle size ([3]; sonication): 10%

Structure (SMILES): C[N+](C)(C)CCOP(=O)([O-])OCC(COC(=O)CCCCC(F)(F)C(F)(F)C(F)(F)C(F)(F)C(F)(F)C(F)(F)F)OC(=O)CCCCC(F)(F)C(F)(F)C(F)(F)C(F)(F)C(F)(F)C(F)(F)F (racemic) [Compound 12, 1,2-di [(11-F-hexyl)pentanoyl] 3-[2' -(N,N,N-trimethylamino)ethylphosphoryl] rac-glycerol]
- concentration of which injection caused no deaths and did not perturb the normal growth [2]: 100 g/L
- increase in average particle size ([3]; sonication): 10%
- Average size of liposomes ([4]; 3% (w/v), from dried lipid film, HEPES buffer pH 7, probe sonicated, light scattering): 0,12 μm
- average particle size of dispersion ([4]; same dispersion procedure applied to powder lipid): 0,12 μm

Structure (SMILES): C[N+](C)(C)CCOP(=O)([O-])OCC(COCCCCCCCCCCCC(F)(F)C(F)(F)C(F)(F)C(F)(F)F)OCCCCCCCCCCCC(F)(F)C(F)(F)C(F)(F)C(F)(F)F (racemic) [Compound 13, 1,2-di [(11-F-butyl)undecyl] 3-[2'-(N,N,N-trimethylamino)ethylphosphoryl] rac-glycerol]
- activity ([1]; 1 g/l in 9% of NaCl): 55%
- viability ([1]; 1 g/l in 9% of NaCl): 91%
- concentration of which injection caused no deaths and did not perturb the normal growth [2]: 60 g/L

Structure (SMILES): COCCOP(=O)(OCCOC)OCC(COC(=O)CCCCCCCCCCC(F)(F)C(F)(F)C(F)(F)C(F)(F)C(F)(F)C(F)(F)F)OC(=O)CCCCCCCCCCC(F)(F)C(F)(F)C(F)(F)C(F)(F)C(F)(F)C(F)(F)F (racemic) [Compound 14, [1',2'-di [(11-F-hexyl)undecanoyl]rac-glyceryl] [di (2'-methoxy-ethyl)] phosphate]
- concentration of which injection caused no deaths and did not perturb the normal growth [2]: 10 g/L

Structure (SMILES): O=P(OCCC(F)(F)C(F)(F)C(F)(F)C(F)(F)C(F)(F)C(F)(F)F)(N1CCOCC1)N1CCOCC1 [Compound 1, [2-(F-hexyl)ethyl] dimorpholinophosphoramidate]
- γs (surface tension) ([5]; 1 g/l in water): 22.5 mNm^-1
- γi (interfacial tension between water and perfluorodecalin) ([6]; 1 g/l in water): 2.0 mNm^-1
- Spreading Coef. ([6]; 1 g/l in water): -1.6 mNm^-1

Structure (SMILES): O=P(OCCC(F)(F)C(F)(F)C(F)(F)C(F)(F)C(F)(F)C(F)(F)C(F)(F)C(F)(F)F)(N1CCOCC1)N1CCOCC1 [Compound 2, [2-(F-octyl)ethyl] dimorpholinohosphoramidate]
- γs (surface tension) ([5]; 1 g/l in water): 22.5 mNm^-1
- activity ([1]; 1 g/l in 9% of NaCl): 67%
- viability ([1]; 1 g/l in 9% of NaCl): 106%
- γi (interfacial tension between water and perfluorodecalin) ([6]; 1 g/l in water): 1.0 mNm^-1
- Spreading Coef. ([6]; 1 g/l in water): -0.6 mNm^-1

Structure (SMILES): O=P(OCCCCCCCCCCCC(F)(F)C(F)(F)C(F)(F)C(F)(F)C(F)(F)C(F)(F)F)(N1CCOCC1)N1CCOCC1 [Compound 3, [11-(F-hexyl)undecyl] dimorpholinohosphoramidate]
- γs (surface tension) ([5]; 0.1 g/l in water): 24.4 mNm^-1
- γi (interfacial tension between water and perfluorodecalin) ([6]; 0.1 g/l in water): 7.5 mNm^-1
- Spreading Coef. ([6]; 0.1 g/l in water): -0.9 mNm^-1
- Relative Increase % (particle size) [3, 7]: 50%
- Average Particle Size After Preparation [3, 8]: 0.26 μm
- Average Particle Size After 1 month [3, 9]: 0.39 μm

Structure (SMILES): O=P(OCCCCCCCCCCCC(F)(F)C(F)(F)C(F)(F)C(F)(F)C(F)(F)C(F)(F)C(F)(F)C(F)(F)F)(N1CCOCC1)N1CCOCC1 [Compound 4, [11-(F-octyl)undecyl] dimorpholinohosphoramidate]
- γs (surface tension) ([5]; 0.1 g/l in water): 22.5 mNm^-1
- γi (interfacial tension between water and perfluorodecalin) ([6]; 0.1 g/l in water): 1.4 mNm^-1
- Spreading Coef. ([6]; 0.1 g/l in water): -1.0 mNm^-1
- Relative Increase % (particle size) [3, 7]: 50%
- Average Particle Size After Preparation [3, 8]: 0.26 μm
- Average Particle Size After 1 month [3, 9]: 0.39 μm

Structure (SMILES): C[N+](C)(C)CCOP(=O)([O-])OCCC(F)(F)C(F)(F)C(F)(F)C(F)(F)C(F)(F)C(F)(F)C(F)(F)C(F)(F)F [Compound 5, [2-(F-octyl)ethyl] [2'-N,N,N trimethylamino ethyl] phosphate]
- γs (surface tension) ([5]; 1 g/l in water): 23.0 mNm^-1
- activity ([1]; 10 g/l in 9% of NaCl): 96%
- viability ([1]; 10 g/l in 9% of NaCl): 102%
- γi (interfacial tension between water and perfluorodecalin) ([6]; 1 g/l in water): 4.5 mNm^-1
- Spreading Coef. ([6]; 1 g/l in water): -4.6 mNm^-1
- concentration of which injection caused no deaths and did not perturb the normal growth [2]: 1 g/L
- emulsion stability (in words) ([3]; 50% w/v F-decalin emulsions, 1% surfactant where stated): remain stable at 50 °C for at least one month
- Average Particle Size After Preparation ([3]; Table I, 1% compound (Ref.: 1% EYP), 50% w/v F-decalin, microfluidization): 0.48 μm
- Relative Increase % (particle size) ([3]; Table I, 1% compound, 50% w/v F-decalin, 1 month at 50° C.): 14%
- Average Particle Size After 1 month at 50° C. ([3]; Table I, 1% compound, 50% w/v F-decalin, microfluidization): 0.55 μm
- Relative Increase % (particle size) [3, 10]: 50%
- Average Particle Size After 1 month at 50° C. [3, 11]: 0.30 μm
- Average Particle Size After Preparation [3, 11]: 0.20 μm
- Relative Increase % (particle size) [3, 7]: 100%
- Average Particle Size After Preparation [3, 8]: 0.15 μm
- Average Particle Size After 1 month [3, 9]: 0.29 μm
- Average Particle Size After Preparation ([3]; Table IV, 0.66% compound + 1.33% EYP (Ref.: 2% EYP), 100% w/v F-decalin, microfluidization): 0.6 μm
- Average Particle size After 3 months ([3]; Table IV, 0.66% compound + 1.33% EYP (Ref.: 2% EYP), 100% w/v F-decalin, stored at 50° C.): 1.1 μm
- Average Particle size After 8 months [3, 12]: 1.35 μm
- Relative Increase % (particle size) [3, 12]: 125%

Structure (SMILES): C[N+](C)(C)CCOP(=O)([O-])OCCCCCCCCCCCC(F)(F)C(F)(F)C(F)(F)C(F)(F)C(F)(F)C(F)(F)C(F)(F)C(F)(F)F [Compound 6, [11-(F-octyl)undecyl] [2'-N,N,N trimethylamino ethyl] phosphate]
- γs (surface tension) ([5]; 1 g/l in water): 30.0 mNm^-1
- γi (interfacial tension between water and perfluorodecalin) ([6]; 1 g/l in water): 9.4 mNm^-1
- Spreading Coef. ([6]; 1 g/l in water): -16.5 mNm^-1
- concentration of which injection caused no deaths and did not perturb the normal growth [2]: 1 g/L
- Relative Increase % (particle size) [3, 10]: 44%
- Average Particle Size After 1 month at 50° C. [3, 11]: 0.36 μm
- Average Particle Size After Preparation [3, 11]: 0.25 μm
- Relative Increase % (particle size) [3, 7]: 110%
- Average Particle Size After Preparation [3, 8]: 0.17 μm
- Average Particle Size After 1 month [3, 9]: 0.36 μm
